From ChEMBL document CHEMBL1145560, “Use of receptor chimeras to identify small molecules with high affinity for the dynorphin A binding domain of the kappa opioid receptor” (Bioorg Med Chem Lett, 2008) come the findings set out here.

Assay [1] has as its target T1, Kappa-type opioid receptor (Homo sapiens, UniProt P41145). The assay can be described thus: Agonist activity at human kappa opioid receptor transfected in CHO cells by [35S]GTP-gamma-S binding assay. The class given is functional, cell-based. For orientation: Binding of GTPγS marks nucleotide exchange on a G protein.
The target in assay [2] is T1, Kappa-type opioid receptor. Description: Displacement of [3H]diprenorphine from human kappa opioid receptor expressed in CHO-K1 cells. The class given is cell-based. In general terms: Loss of bound radioactivity is the signal in a displacement assay; it reports binding, not function.
The target of assay [3] is Delta-type opioid receptor (Homo sapiens, UniProt P41143). Description: Displacement of [3H]diprenorphine from human delta opioid receptor expressed in CHO-K1 cells. The class given is cell-based.
The next assay deals with Mu-type opioid receptor (Homo sapiens, UniProt P35372). The assay can be described thus: Displacement of [3H]diprenorphine from human mu opioid receptor expressed in CHO-K1 cells. The class given is cell-based.
A short description of assay [4]: Displacement of [3H]diprenorphine from human kappa/mu opioid chimera 3 receptor.
Assay [5] is described as follows: Displacement of [3H]diprenorphine from human kappa/mu opioid chimera 4 receptor.

T1 sequence (P41145 whole entry): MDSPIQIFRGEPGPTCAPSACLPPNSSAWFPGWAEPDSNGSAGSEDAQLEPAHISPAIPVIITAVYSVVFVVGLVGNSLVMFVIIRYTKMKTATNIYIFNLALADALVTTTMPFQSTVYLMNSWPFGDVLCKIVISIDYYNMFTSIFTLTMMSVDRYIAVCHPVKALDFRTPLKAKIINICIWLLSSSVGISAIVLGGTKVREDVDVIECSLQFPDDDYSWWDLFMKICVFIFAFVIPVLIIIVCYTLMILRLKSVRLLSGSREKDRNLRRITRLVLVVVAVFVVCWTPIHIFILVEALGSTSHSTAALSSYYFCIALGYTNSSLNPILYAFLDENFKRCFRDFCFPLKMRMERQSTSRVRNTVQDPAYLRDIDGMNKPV
Chain of Delta-type opioid receptor (P41143 whole entry): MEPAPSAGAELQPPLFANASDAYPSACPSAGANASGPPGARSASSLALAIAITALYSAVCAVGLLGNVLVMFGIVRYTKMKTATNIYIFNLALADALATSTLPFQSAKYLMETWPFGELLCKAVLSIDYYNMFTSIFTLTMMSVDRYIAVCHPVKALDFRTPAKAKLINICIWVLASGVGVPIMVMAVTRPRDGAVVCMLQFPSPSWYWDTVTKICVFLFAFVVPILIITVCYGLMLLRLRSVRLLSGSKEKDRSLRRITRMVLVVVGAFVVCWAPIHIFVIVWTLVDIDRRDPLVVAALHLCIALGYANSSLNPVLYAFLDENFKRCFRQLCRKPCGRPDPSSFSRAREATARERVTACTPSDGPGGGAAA
Chain of Mu-type opioid receptor (P35372 whole entry): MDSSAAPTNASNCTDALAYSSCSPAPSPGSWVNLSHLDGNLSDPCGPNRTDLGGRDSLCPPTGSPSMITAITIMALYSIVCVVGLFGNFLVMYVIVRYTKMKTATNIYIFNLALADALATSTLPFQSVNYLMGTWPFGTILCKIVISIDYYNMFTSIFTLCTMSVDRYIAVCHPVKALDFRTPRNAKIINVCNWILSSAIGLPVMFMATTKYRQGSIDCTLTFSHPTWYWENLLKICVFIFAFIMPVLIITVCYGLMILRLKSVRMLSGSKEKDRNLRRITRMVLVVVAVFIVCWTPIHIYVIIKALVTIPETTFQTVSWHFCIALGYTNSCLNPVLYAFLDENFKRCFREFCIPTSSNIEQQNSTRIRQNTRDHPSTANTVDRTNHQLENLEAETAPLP

With `COc1cc(CC(=O)N(C)[C@H](CN2CC[C@H](O)C2)c2ccccc2)c(S(=O)(=O)N2CCOCC2)cc1OC`, a half-maximal response in assay [1] (EC50) required 0.34 nM. Further, the inhibitory constant (Ki) – broadly, the dissociation constant of the complex between target and ligand, obtained from inhibition or displacement – in assay [2] is 1.4 nM; in assay [3], 1.8 nM; at Mu-type opioid receptor it was 9 nM.
Take `COc1cc(CC(=O)N(C)[C@H](CN2CC[C@H](O)C2)c2ccccc2)c(S(=O)(=O)N(C)C)cc1OC`: the EC50 (in general, the concentration at which the effect is half-maximal) in assay [1] came out at 0.24 nM. In addition, the Ki in assay [2] is 1.6 nM; in assay [3] it was 9.3 nM; on Mu-type opioid receptor it was 25 nM; in assay [4], 6.4 nM; in assay [5], 2.8 nM.
As for `COc1cc(CC(=O)N(C)[C@H](CN2CCCC2)c2ccccc2)c(S(=O)(=O)N2CCN(C)CC2)cc1OC`, the EC50 in assay [1] stood at 0.39 nM. Also, the inhibition constant Ki in assay [3] was 23 nM; on Mu-type opioid receptor, 52 nM; in assay [4], 4.8 nM; in assay [5] it was 6.8 nM.
On to `CN(C(=O)Cc1cc2c(cc1S(=O)(=O)N(C)C)OCO2)[C@H](CN1CCCC1)c1ccccc1`, for which a half-maximal effect in assay [1] (EC50) was put at 0.1 nM. The Ki in assay [2] amounted to 0.22 nM; in assay [3], 110 nM; on Mu-type opioid receptor it was 47 nM; in assay [4] it was 5.2 nM; in assay [5] it was 0.71 nM.
In the case of `CN(C(=O)Cc1cc2c(cc1S(=O)(=O)N(C)Cc1ccccc1)OCO2)[C@H](CN1CCCC1)c1ccccc1`, the concentration giving a half-maximal response (EC50) in assay [1] came to 0.12 nM. The Ki in assay [2] came out at 0.19 nM; in assay [3] it was 3.4 nM; at Mu-type opioid receptor, 6.5 nM; in assay [4], 5.5 nM; in assay [5], 1.7 nM.
`COc1cc(CC(=O)N(C)[C@H](CN2CC[C@H](O)C2)c2ccccc2)c(S(=O)(=O)N2CCN(C)CC2)cc1OC`: in assay [1], the EC50 was found to be 0.71 nM. In addition, the inhibition constant (Ki) in assay [2] amounted to 3.8 nM; in assay [3], 4.4 nM; at Mu-type opioid receptor it was 27 nM.
In the case of `COc1cc(CC(=O)N(C)[C@H](CN2CCCC2)c2ccccc2)c(S(=O)(=O)N2CCCC2)cc1OC`, it took 0.11 nM to reach a half-maximal effect in assay [1] (EC50). The Ki in assay [2] was found to be 0.31 nM; in assay [3] it was 5.4 nM; at Mu-type opioid receptor, 14 nM; in assay [4], 1.5 nM; in assay [5], 1.2 nM.
In turn, `COc1cc(CC(=O)N(C)[C@H](CN2CC[C@H](O)C2)c2ccccc2)c(S(=O)(=O)N2CCCC2)cc1OC` came in with an EC50 in assay [1] of 0.12 nM. Also, the Ki was found to be 1.1 nM in assay [2]; 0.85 nM in assay [3]; 5.9 nM on Mu-type opioid receptor; 38 nM in assay [4]; 8.3 nM in assay [5].
Turning to `CC[C@H](C)[C@H](NC(=O)[C@H](CCCNC(=N)N)NC(=O)[C@H](CCCNC(=N)N)NC(=O)[C@H](CC(C)C)NC(=O)[C@H](Cc1ccccc1)NC(=O)CNC(=O)CNC(=O)[C@@H](N)Cc1ccc(O)cc1)C(=O)N[C@@H](CCCNC(=N)N)C(=O)N1CCC[C@H]1C(=O)N[C@@H](CCCCN)C(=O)N[C@@H](CC(C)C)C(=O)N[C@@H](CCCCN)C(=O)N[C@@H](Cc1c[nH]c2ccccc12)C(=O)N[C@@H](CC(=O)O)C(=O)N[C@@H](CC(N)=O)C(=O)N[C@@H](CCC(N)=O)C(=O)O` [DYNORPHIN A (1-17)], the Ki in assay [4] worked out at 0.31 nM; in assay [5], 0.18 nM.
Turning to `COc1cc(CC(=O)N(C)[C@H](CN2CCCC2)c2ccccc2)c(S(=O)(=O)N(C)C)cc1OC`, in assay [1], the EC50 is 0.26 nM. Moreover, the inhibition constant (Ki) was 0.5 nM in assay [2]; 56 nM in assay [3]; 42 nM on Mu-type opioid receptor; 3.2 nM in assay [4]; 2.5 nM in assay [5].
Compound `COc1cc(CC(=O)N(C)[C@H](CN2CCCC2)c2ccccc2)c(S(=O)(=O)N2CCOCC2)cc1OC` had an EC50 in assay [1] of 0.17 nM. Also, the Ki in assay [2] worked out at 0.55 nM; in assay [3], 9.4 nM; on Mu-type opioid receptor, 15 nM; in assay [4], 1.3 nM; in assay [5] it was 2.2 nM.
For `COc1cc(CC(=O)N(C)[C@H](CN2CCCC2)c2ccccc2)c(S(=O)(=O)N(C)Cc2ccccc2)cc1OC`, a half-maximal effect in assay [1] (EC50) was put at 0.54 nM. Also, the Ki in assay [2] is 0.68 nM; in assay [3], 1.5 nM; on Mu-type opioid receptor it was 21 nM; in assay [4], 3.3 nM; in assay [5], 4.8 nM.
In assay [1], `CN(C(=O)Cc1cc2c(cc1S(=O)(=O)N(C)C)OCO2)[C@H](CN1CC[C@H](O)C1)c1ccccc1` registered an EC50 of 0.11 nM. Also, the Ki is 0.54 nM in assay [2]; 6.2 nM in assay [3]; 34 nM at Mu-type opioid receptor; 4.5 nM in assay [4]; 0.5 nM in assay [5].
